Drawing on the supplement of paper PMC6045584, this text covers surviving fraction for nine test systems.

Compound in one experiment: COc1cc2nccc(Oc3ccc(NC(=O)C4(C(=O)Nc5ccc(F)cc5)CC4)cc3)c2cc1OC [CABOZANTINIB]
The experiment is described as follows: surviving fraction relative to DMSO-only wells; higher = less growth inhibition. The following applies: exposure time: 5 days. An outline of the steps:
(§1)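 Inhibitors were tested at 0.5, 1, 5, 10, 50, 100, 500 and 1000 nM, applied continuously for five days beginning 24 hours after log-phase tumour cells were seeded at 250–500 per well in 384-well plates. CellTiter-Glo luminescence served as the viability measure, expressed as surviving fraction against the median of DMSO-only wells. Each line, screened three times, was kept only with replicate Pearson r >0.7 and median Z' >0.3.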

Compound in experiment [1]: C[C@H](CN(C)C)Oc1nc(Nc2cc3cccc(Cl)c3cn2)cnc1C#N
The experiment is described as above. The following applies: exposure time: 5 days. An outline of the steps:
as §1

± gives the standard deviation of the averaged measurements.

In the case of NOS1 BONE, the surviving fraction with CABOZANTINIB (0.5 nM) was 1.09 ± 0.062; with CABOZANTINIB (1 nM), 1.08 ± 0.012; with CABOZANTINIB (5 nM) it was 1.12 ± 0.078; with CABOZANTINIB (10 nM), 1.16 ± 0.073; with CABOZANTINIB (50 nM), 0.944 ± 0.029; in the experiment with CABOZANTINIB (100 nM), 0.841 ± 0.04. For the same test system, the surviving fraction was found to be 0.68 ± 0.077 in the experiment with CABOZANTINIB (500 nM); 0.579 ± 0.041 with CABOZANTINIB (1000 nM); 1.09 ± 0.18 in experiment [1] (0.5 nM); 1.05 ± 0.082 in experiment [1] (1 nM); 0.999 ± 0.066 in experiment [1] (5 nM); 1.02 ± 0.076 in experiment [1] (10 nM). The surviving fraction in experiment [1] (50 nM) was 0.875 ± 0.046; in experiment [1] (100 nM), 0.709 ± 0.12; in experiment [1] (500 nM), 0.252 ± 0.0046; in experiment [1] (1000 nM) it was 0.253 ± 0.0087.

Take OS25HAL BONE: the surviving fraction is 0.957 ± 0.017 with CABOZANTINIB (0.5 nM); 0.963 ± 0.02 with CABOZANTINIB (1 nM); 1.02 ± 0.021 with CABOZANTINIB (5 nM); 0.93 ± 0.022 with CABOZANTINIB (10 nM); 0.941 ± 0.041 with CABOZANTINIB (50 nM); 0.875 ± 0.029 in the experiment with CABOZANTINIB (100 nM). For the same test system, the surviving fraction came to 0.8397 ± 0.0068 with CABOZANTINIB (500 nM); 0.806 ± 0.068 with CABOZANTINIB (1000 nM); 0.972 ± 0.013 in experiment [1] (0.5 nM); 0.965 ± 0.034 in experiment [1] (1 nM); 1.049 ± 0.0085 in experiment [1] (5 nM); 0.979 ± 0.024 in experiment [1] (10 nM). Also, the surviving fraction in experiment [1] (50 nM) is 1.07 ± 0.057; in experiment [1] (100 nM) it was 1.09 ± 0.014; in experiment [1] (500 nM), 0.615 ± 0.082; in experiment [1] (1000 nM), 0.217 ± 0.023.

Turning to SCC47 HEADNECK, the surviving fraction with CABOZANTINIB (0.5 nM) worked out at 0.891 ± 0.022; with CABOZANTINIB (1 nM), 0.894 ± 0.019; with CABOZANTINIB (5 nM) it was 1.06 ± 0.062; in the experiment with CABOZANTINIB (10 nM) it was 1.03 ± 0.16; with CABOZANTINIB (50 nM), 1.05 ± 0.14; with CABOZANTINIB (100 nM), 1.08 ± 0.069. The surviving fraction in the experiment with CABOZANTINIB (500 nM) is 0.844 ± 0.025; in the experiment with CABOZANTINIB (1000 nM), 0.922 ± 0.041; in experiment [1] (0.5 nM), 1.06 ± 0.052; in experiment [1] (1 nM) it was 1.06 ± 0.091; in experiment [1] (5 nM), 1.06 ± 0.065; in experiment [1] (10 nM), 1.11 ± 0.054. The surviving fraction in experiment [1] (50 nM) was found to be 1.14 ± 0.059; in experiment [1] (100 nM) it was 1.12 ± 0.1; in experiment [1] (500 nM), 0.671 ± 0.049; in experiment [1] (1000 nM) it was 0.925 ± 0.0085.

Take BT549 BREAST: the surviving fraction with CABOZANTINIB (0.5 nM) is 1.05 ± 0.047; in the experiment with CABOZANTINIB (1 nM) it was 1.02 ± 0.024; with CABOZANTINIB (5 nM) it was 1.07 ± 0.034; with CABOZANTINIB (10 nM), 1.02 ± 0.2; in the experiment with CABOZANTINIB (50 nM), 1.22 ± 0.017; in the experiment with CABOZANTINIB (100 nM), 1.13 ± 0.16. The surviving fraction is 1.12 ± 0.18 with CABOZANTINIB (500 nM); 1.16 ± 0.14 with CABOZANTINIB (1000 nM); 1.12 ± 0.055 in experiment [1] (0.5 nM); 1.14 ± 0.12 in experiment [1] (1 nM); 1.05 ± 0.1 in experiment [1] (5 nM); 1.1 ± 0.044 in experiment [1] (10 nM). For the same test system, the surviving fraction in experiment [1] (50 nM) turned out to be 1.1 ± 0.076; in experiment [1] (100 nM), 0.896 ± 0.095; in experiment [1] (500 nM), 0.141 ± 0.024; in experiment [1] (1000 nM), 0.0517 ± 0.011.

Turning to 93VU HEADNECK, the surviving fraction with CABOZANTINIB (0.5 nM) came to 0.824 ± 0.084; with CABOZANTINIB (1 nM), 0.841 ± 0.026; with CABOZANTINIB (5 nM), 0.916 ± 0.028; with CABOZANTINIB (10 nM), 1.01 ± 0.14; with CABOZANTINIB (50 nM), 1.02 ± 0.084; in the experiment with CABOZANTINIB (100 nM), 0.967 ± 0.05. In addition, the surviving fraction in the experiment with CABOZANTINIB (500 nM) was found to be 0.777 ± 0.042; in the experiment with CABOZANTINIB (1000 nM), 0.71 ± 0.051; in experiment [1] (0.5 nM), 0.995 ± 0.04; in experiment [1] (1 nM) it was 1.04 ± 0.079; in experiment [1] (5 nM) it was 1.04 ± 0.06; in experiment [1] (10 nM), 1.09 ± 0.039. The surviving fraction in experiment [1] (50 nM) came to 1.03 ± 0.11; in experiment [1] (100 nM) it was 1.14 ± 0.1; in experiment [1] (500 nM) it was 0.865 ± 0.066; in experiment [1] (1000 nM), 0.976 ± 0.09.

Regarding NCIH441 LUNG, the surviving fraction with CABOZANTINIB (0.5 nM) is 1.07 ± 0.042; with CABOZANTINIB (1 nM), 1.02 ± 0.038; in the experiment with CABOZANTINIB (5 nM), 1.07 ± 0.036; in the experiment with CABOZANTINIB (10 nM), 0.963 ± 0.056; in the experiment with CABOZANTINIB (50 nM), 1.07 ± 0.028; with CABOZANTINIB (100 nM) it was 1.06 ± 0.021. The surviving fraction came out at 1.01 ± 0.031 with CABOZANTINIB (500 nM); 0.845 ± 0.019 in the experiment with CABOZANTINIB (1000 nM); 1.1 ± 0.07 in experiment [1] (0.5 nM); 1.01 ± 0.04 in experiment [1] (1 nM); 1.1 ± 0.035 in experiment [1] (5 nM); 1.19 ± 0.053 in experiment [1] (10 nM). In addition, the surviving fraction in experiment [1] (50 nM) was found to be 1.17 ± 0.026; in experiment [1] (100 nM), 1.16 ± 0.11; in experiment [1] (500 nM), 0.86 ± 0.051; in experiment [1] (1000 nM) it was 0.531 ± 0.031.

Regarding SUM159 BREAST, the surviving fraction with CABOZANTINIB (0.5 nM) was 1.02 ± 0.03; in the experiment with CABOZANTINIB (1 nM), 1.02 ± 0.028; in the experiment with CABOZANTINIB (5 nM), 1.01 ± 0.026; with CABOZANTINIB (10 nM), 1.01 ± 0.036; with CABOZANTINIB (50 nM), 1 ± 0.025; with CABOZANTINIB (100 nM) it was 1.01 ± 0.034. Also, the surviving fraction with CABOZANTINIB (500 nM) came out at 0.986 ± 0.036; with CABOZANTINIB (1000 nM), 0.977 ± 0.025; in experiment [1] (0.5 nM), 1.04 ± 0.038; in experiment [1] (1 nM), 1.06 ± 0.034; in experiment [1] (5 nM), 1.05 ± 0.03; in experiment [1] (10 nM), 1.05 ± 0.033. Besides, the surviving fraction came out at 1.06 ± 0.024 in experiment [1] (50 nM), 1.05 ± 0.024 in experiment [1] (100 nM), 1.03 ± 0.02 in experiment [1] (500 nM) and 0.986 ± 0.0078 in experiment [1] (1000 nM).

Regarding SJSA1 BONE, the surviving fraction with CABOZANTINIB (0.5 nM) was determined as 1.47 ± 0.13; in the experiment with CABOZANTINIB (1 nM) it was 1.63 ± 0.045; in the experiment with CABOZANTINIB (5 nM), 1.56 ± 0.07; in the experiment with CABOZANTINIB (10 nM) it was 1.75 ± 0.071; in the experiment with CABOZANTINIB (50 nM) it was 1.627 ± 0.0032; with CABOZANTINIB (100 nM), 1.74 ± 0.13. In addition, the surviving fraction in the experiment with CABOZANTINIB (500 nM) is 1.65 ± 0.059; with CABOZANTINIB (1000 nM), 1.78 ± 0.089; in experiment [1] (0.5 nM), 1.49 ± 0.044; in experiment [1] (1 nM) it was 1.65 ± 0.083; in experiment [1] (5 nM), 1.6 ± 0.17; in experiment [1] (10 nM) it was 1.57 ± 0.02. Moreover, the surviving fraction was 1.63 ± 0.14 in experiment [1] (50 nM), 1.74 ± 0.039 in experiment [1] (100 nM), 1.63 ± 0.2 in experiment [1] (500 nM) and 1.69 ± 0.082 in experiment [1] (1000 nM).

In the case of MDAMB231 BREAST, the surviving fraction in the experiment with CABOZANTINIB (0.5 nM) came to 0.853 ± 0.013; in the experiment with CABOZANTINIB (1 nM), 0.9576 ± 0.0047; in the experiment with CABOZANTINIB (5 nM), 0.969 ± 0.0068; with CABOZANTINIB (10 nM) it was 0.978 ± 0.024; in the experiment with CABOZANTINIB (50 nM) it was 1.01 ± 0.018; in the experiment with CABOZANTINIB (100 nM) it was 1.005 ± 0.0054. In addition, the surviving fraction worked out at 0.908 ± 0.03 in the experiment with CABOZANTINIB (500 nM); 0.849 ± 0.019 in the experiment with CABOZANTINIB (1000 nM); 0.9579 ± 0.0095 in experiment [1] (0.5 nM); 0.9571 ± 0.0043 in experiment [1] (1 nM); 0.93 ± 0.076 in experiment [1] (5 nM); 0.959 ± 0.024 in experiment [1] (10 nM). The surviving fraction in experiment [1] (50 nM) came to 0.9788 ± 0.0062; in experiment [1] (100 nM) it was 0.961 ± 0.02; in experiment [1] (500 nM) it was 0.743 ± 0.029; in experiment [1] (1000 nM) it was 0.492 ± 0.0092.
